In patent publication US7265152B2 (ViroPharma Incorporated, priority 2002, dated 2007):

Tests used:
[1] = tested on: HCV replicon (BB7 sequence) in Huh-7-Clone A cells; assay: HCV replicon assay: ELISA of NS5A protein in replicon-containing cells (Inhibition of Viral RNA Replication); format: cell-based; conditions: Hepatitis C virus; HCV replicon assay; ranges of EC50; read-out: Replicon
Method in brief: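 Huh-7-Clone A cells carrying subgenomic BB7 HCV replicon (G418-selectable) incubated 72 h with compound. NS5A protein quantified by cell ELISA: glutaraldehyde fixation, anti-NS5A monoclonal plus HRP secondary, TMB read at OD 650 nm. EC50 derived from 8-point serial dilution dose curve.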

[2] = biological target: T1, HCV NS5B (Hepatitis C virus genotype 1b, UniProt Q9WMX2); assay: Inhibition of viral RNA-dependent RNA polymerase (RdRp), in vitro biochemical assay; parameters: species or system HCV genotype 1b virus (BB7); conditions: HCV NS5B RdRp, BB7; activity class; read-out: HCV pol-BB7 IC50
T1 construct: fusion protein, of which the carboxyl terminal 21 amino acids were removed to enhance its solubility; His tag (GSHHHHHH); made in house; host or cells: E. coli
Method in brief: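 Purified recombinant NS5B from a genotype 1b consensus (BB7), His-tagged, E. coli-expressed, with the C-terminal 21 residues deleted. Inhibition of RdRp activity in vitro was measured, and IC50 is the concentration giving 50% inhibition.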

| Structure (SMILES) | EC50 [1] [µM] | IC50 [2] [µM] |
| --- | --- | --- |
| CCCOc1cc2c(C(=O)NC)c(-c3ccc(F)cc3)oc2cc1N(CCC)S(C)(=O)=O [Example 338, 2-(4-Fluoro-phenyl)-6-(methanesulfonyl-propyl-amino)-5-propoxy-benzofuran-3-carboxylic acid methylamide] | < 1 | ≤ 0.5 |
| CCc1cc2c(C(=O)NC)c(-c3ccc(F)cc3)oc2cc1C(C)(C)O [Example 339, 5-Ethyl-2-(4-fluoro-phenyl)-6-(1-hydroxy-1-methyl-ethyl)-benzofuran-3-carboxylic acid methylamide] | < 1 | ≤ 0.5 |
| CCc1cc2c(C(=O)NC)c(-c3ccc(F)cc3)oc2cc1C(C)=O [Example 340, 6-Acetyl-5-ethyl-2-(4-fluoro-phenyl)-benzofuran-3-carboxylic acid methylamide] | < 1 | ≤ 0.5 |
| CCNc1cc2oc(-c3ccc(F)cc3)c(C(=O)NC)c2c(Cl)c1O [Example 341, 4-Chloro-6-ethylamino-2-(4-fluoro-phenyl)-5-hydroxy-benzofuran-3-carboxylic acid methylamide] | > 100 | 0.5 to 5 |
| CCNc1cc2oc(-c3ccc(F)cc3)c(C(=O)NC)c2c(Cl)c1OS(C)(=O)=O [Example 342, Methanesulfonic acid 4-chloro-6-ethylamino-2-(4-fluoro-phenyl)-3-methylcarbamoyl-benzofuran-5-yl ester] | < 10 | ≤ 0.5 |
| CCc1cc2c(C(=O)NC)c(-c3ccc(F)cc3)oc2cc1N(Cc1cscn1)S(C)(=O)=O [Example 343, 5-Ethyl-2-(4-fluoro-phenyl)-6-(methanesulfonyl-thiazol-4-ylmethyl-amino)-benzofuran-3-carboxylic acid methylamide] | < 1 | ≤ 0.5 |
| CNC(=O)c1c(-c2ccc(F)cc2)oc2cc(-c3c(COC)noc3C3CC3)c(OC)cc12 [Example 344, 6-(5-Cyclopropyl-3-methoxymethyl-isoxazol-4-yl)-2-(4-fluoro-phenyl)-5-methoxy-benzofuran-3-carboxylic acid methylamide] | < 1 | ≤ 0.5 |
| CNC(=O)c1c(-c2ccc(F)cc2)oc2cc(C3CCN(C(C)=O)C3)c(OC)cc12 (stereo not shown) [Example 345, 6-(1-Acetyl-pyrrolidin-3-yl)-2-(4-fluoro-phenyl)-5-methoxy-benzofuran-3-carboxylic acid methylamide] | < 10 | ≤ 0.5 |
| CNC(=O)c1c(-c2ccc(F)cc2)oc2cc(N(C)S(C)(=O)=O)c(OCc3ccc(F)c(F)c3)cc12 [Example 346, 5-(3,4-Difluoro-benzyloxy)-2-(4-fluoro-phenyl)-6-(methanesulfonyl-methyl-amino)-benzofuran-3-carboxylic acid methylamide] | < 1 | ≤ 0.5 |
| CNC(=O)c1c(-c2ccc(F)cc2)oc2cc(N(C)S(C)(=O)=O)c(OCc3ccccc3OC(F)F)cc12 [Example 347, 5-(2-Difluoromethoxy-benzyloxy)-2-(4-fluoro-phenyl)-6-(methanesulfonyl-methyl-amino)-benzofuran-3-carboxylic acid methylamide] | < 1 | ≤ 0.5 |
| CCCOc1cc2c(C(=O)NC)c(-c3ccc(F)cc3)oc2cc1N(C)S(C)(=O)=O [Example 348, 2-(4-Fluoro-phenyl)-6-(methanesulfonyl-methyl-amino)-5-propoxy-benzofuran-3-carboxylic acid methylamide] | < 1 | ≤ 0.5 |
| C=CCOc1cc2c(C(=O)NC)c(-c3ccc(F)cc3)oc2cc1N(C)S(C)(=O)=O [Example 349, 5-Allyloxy-2-(4-fluoro-phenyl)-6-(methanesulfonyl-methyl-amino)-benzofuran-3-carboxylic acid methylamide] | < 1 | ≤ 0.5 |
| CCOCc1cc(-c2cc3oc(-c4ccc(F)cc4)c(C(=O)NC)c3cc2OC)no1 [Example 350, 6-(5-Ethoxymethyl-isoxazol-3-yl)-2-(4-fluoro-phenyl)-5-methoxy-benzofuran-3-carboxylic acid methylamide] | < 1 | ≤ 0.5 |
| CNC(=O)c1c(-c2ccc(F)cc2)oc2cc(N(C)S(C)(=O)=O)c(OCC3CC3)cc12 [Example 351, 5-Cyclopropylmethoxy-2-(4-fluoro-phenyl)-6-(methanesulfonyl-methyl-amino)-benzofuran-3-carboxylic acid methylamide] | < 1 | ≤ 0.5 |
| CNC(=O)c1c(-c2ccc(F)cc2)oc2cc(N(C)S(C)(=O)=O)c(OCc3cc(OC)cc(OC)c3)cc12 [Example 352, 5-(3,5-Dimethoxy-benzyloxy)-2-(4-fluoro-phenyl)-6-(methanesulfonyl-methyl-amino)-benzofuran-3-carboxylic acid methylamide] | < 1 | ≤ 0.5 |
| CNC(=O)c1c(-c2ccc(F)cc2)oc2cc(N(C)S(C)(=O)=O)c(OCc3ccc(S(C)(=O)=O)cc3)cc12 [Example 353, 2-(4-Fluoro-phenyl)-5-(4-methanesulfonyl-benzyloxy)-6-(methanesulfonyl-methyl-amino)-benzofuran-3-carboxylic acid methylamide] | < 1 | ≤ 0.5 |
| CNC(=O)c1c(-c2ccc(F)cc2)oc2cc(N(C)S(C)(=O)=O)c(OCC(=O)c3ccc(OC)cc3)cc12 [Example 355, 2-(4-Fluoro-phenyl)-6-(methanesulfonyl-methyl-amino)-5-[2-(4-methoxy-phenyl)-2-oxo-ethoxy]-benzofuran-3-carboxylic acid methylamide] | < 1 | ≤ 0.5 |
| CNC(=O)c1c(-c2ccc(F)cc2)oc2cc(N(C)S(C)(=O)=O)c(OCc3cccc(C#N)c3)cc12 [Example 356, 5-(3-Cyano-benzyloxy)-2-(4-fluoro-phenyl)-6-(methanesulfonyl-methyl-amino)-benzofuran-3-carboxylic acid methylamide] | < 1 | ≤ 0.5 |
| CNC(=O)c1c(-c2ccc(F)cc2)oc2cc(N(C)S(C)(=O)=O)c(OCc3ccc(C#N)cc3)cc12 [Example 357, 5-(4-Cyano-benzyloxy)-2-(4-fluoro-phenyl)-6-(methanesulfonyl-methyl-amino)-benzofuran-3-carboxylic acid methylamide] | < 1 | ≤ 0.5 |
| CCOC(=O)c1ccc(NC(=O)COc2cc3c(C(=O)NC)c(-c4ccc(F)cc4)oc3cc2N(C)S(C)(=O)=O)cc1 [Example 359, 4-{2-[2-(4-Fluoro-phenyl)-6-(methanesulfonyl-methyl-amino)-3-methylcarbamoyl-benzofuran-5-yloxy]-acetylamino}-benzoic acid ethyl ester] | < 10 | ≤ 0.5 |
| CNC(=O)c1c(-c2ccc(F)cc2)oc2cc(N(C)S(C)(=O)=O)c(OCC(=O)c3ccc(F)cc3)cc12 [Example 360, 2-(4-Fluoro-phenyl)-5-[2-(4-fluoro-phenyl)-2-oxo-ethoxy]-6-(methanesulfonyl-methyl-amino)-benzofuran-3-carboxylic acid methylamide] | < 1 | ≤ 0.5 |
| CNC(=O)c1c(-c2ccc(F)cc2)oc2cc(N(Cc3ccccc3)S(C)(=O)=O)c(OC(C)C)cc12 [Example 361, 6-(Benzyl-methanesulfonyl-amino)-2-(4-fluoro-phenyl)-5-isopropoxy-benzofuran-3-carboxylic acid methylamide] | < 1 | ≤ 0.5 |
| CCN(C)c1cc2oc(-c3ccc(F)cc3)c(C(=O)NC)c2c(Cl)c1OC [Example 362, 4-Chloro-6-(ethyl-methyl-amino)-2-(4-fluoro-phenyl)-5-methoxy-benzofuran-3-carboxylic acid methylamide] | < 10 | ≤ 0.5 |
| CCNc1cc2oc(-c3ccc(F)cc3)c(C(=O)NC)c2c(Cl)c1OC [Example 363, 4-Chloro-6-ethylamino-2-(4-fluoro-phenyl)-5-methoxy-benzofuran-3-carboxylic acid mehtylamide] | < 1 | ≤ 0.5 |
| CCNc1cc2oc(-c3ccc(F)cc3)c(C(=O)NC)c2cc1O [Example 364, 6-Ethylamino-2-(4-fluoro-phenyl)-5-hydroxy-benzofuran-3-carboxylic acid methylamide] | > 30 | 0.5 to 5 |
| CCNc1cc2oc(-c3ccc(F)cc3)c(C(=O)NC)c2cc1OCCCBr [Example 365, 5-(3-Bromo-propoxy)-6-ethylamino-2-(4-fluoro-phenyl)-benzofuran-3-carboxylic acid methylamide] | < 1 | ≤ 0.5 |
| C=CCOc1cc2c(C(=O)NC)c(-c3ccc(F)cc3)oc2cc1NCC [Example 366, 5-Allyloxy-6-ethylamino-2-(4-fluoro-phenyl)-benzofuran-3-carboxylic acid methylamide] | < 1 | ≤ 0.5 |
| CCNc1cc2oc(-c3ccc(F)cc3)c(C(=O)NC)c2cc1OCCCOCC [Example 367, 5-(3-Ethoxy-propoxy)-6-ethylamino-2-(4-fluoro-phenyl)-benzofuran-3-carboxylic acid methylamide] | < 1 | ≤ 0.5 |
| CNC(=O)c1c(-c2ccc(F)cc2)oc2cc(C3CCCN3C(N)=O)c(OC)cc12 (stereo not shown) [Example 368, 2-[2-(4-Fluoro-phenyl)-5-methoxy-3-methylcarbamoyl-benzofuran-6-yl]-pyrrolidine-1-carboxylic acid amide] | < 1 | ≤ 0.5 |
